pIC50: −log10 of the molar value.
Molecular target: T1, GSK-3α (Homo sapiens, UniProt P49840)
T1 construct: purchased Upstate Biotechnology USA
Assay: GSK-3α kinase inhibition assay ([γ-32P]ATP phosphorylation of substrate)
Assay type: biochemical
Details: 20 μM ATP
Experimental: Protein kinases and substrates were purchased from Upstate Biotechnology USA, except for poly(Glu-Tyr 4:1) which was obtained from Sigma-Aldrich.
After 15 mins, the reaction was initiated by adding ATP to a final concentration of 20 μM, including approximately 0.04 μCi/μl [γ-^32P]ATP. Reactions were performed in a total volume of 25 μl. After 30 min, the reaction was terminated by spotting 17.5 μl on a circular P81 phosphocellulose paper (diameter 2.1 cm, Whatman) followed by washing four times (five minutes each wash) with 0.75% phosphoric acid and once with acetone. The dried P81 papers were transferred to a scintillation vial and 5 ml of scintillation cocktail were added and the counts per minute (CPM) determined with a Beckmann 6000 scintillation counter.

T1 sequence (P49840 whole entry): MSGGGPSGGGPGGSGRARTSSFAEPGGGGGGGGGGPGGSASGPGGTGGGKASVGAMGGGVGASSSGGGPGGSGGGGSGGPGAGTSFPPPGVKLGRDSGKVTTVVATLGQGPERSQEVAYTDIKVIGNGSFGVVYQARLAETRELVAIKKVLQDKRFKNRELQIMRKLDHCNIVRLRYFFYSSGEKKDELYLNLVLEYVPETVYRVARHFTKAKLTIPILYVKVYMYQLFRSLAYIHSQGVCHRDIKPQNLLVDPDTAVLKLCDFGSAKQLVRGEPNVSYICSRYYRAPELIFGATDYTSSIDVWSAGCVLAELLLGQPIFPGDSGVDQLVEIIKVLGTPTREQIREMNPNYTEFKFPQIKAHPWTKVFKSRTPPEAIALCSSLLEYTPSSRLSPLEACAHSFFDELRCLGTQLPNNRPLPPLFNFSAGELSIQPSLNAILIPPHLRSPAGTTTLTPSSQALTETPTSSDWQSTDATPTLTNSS

pIC50: 4.30
Structure (SMILES): O=C1NC(=O)c2c1c1cccnc1c1[nH]c3ccccc3c21 [Compound 4]

Source: patent publication US8080660B2, “Metal complex glycogen synthase kinase 3 inhibitors” (The Trustees Of The University Of Pennsylvania, priority 2004, dated 2011)
